Where two headings read alike, the source gives them in different places.
Experiments:
[1] = Cytotoxicity by sulforhodamine B (SRB) colorimetric assay; type: cell-based, African green monkey; conditions: African green monkey, Vero cells, 72 h, SRB, mean ± SD of three repeats
Text: (§1) A cytotoxicity test of selected analogs against African green monkey kidney fibroblast (Vero cells) was obtained from Bioassay Laboratory, BIOTEC, NSTDA, Thailand. They were maintained continuously in MEM/EBSS medium (Hyclone Laboratories Inc., South Logan, UT, USA), supplemented with 10% heated fetal bovine serum (GE Healthcare, PAA Laboratories GmbH, Pasching, Austria), 2.2 g/L Sodium bicarbonate (Emsure, Merck kGaA, Darmstadt, Germany), and 1% sodium pyruvate (Sigma). […] Then, the cells were fixed with 100 µL of 10% trichloroacetic acid (Sigma) at 4 °C for 45 min, washed, and dried at room temperature overnight. […] Finally, 200 µL of 10× Tris-base was added to each well to dissolve protein-bound dye. The OD was determined at a wavelength of 510 nm. The control media was used for overall background subtraction as 0% and untreated cells as 100% control without any cytotoxic effect. The IC50 value of each compound was determined from the dose–response curve.

[2] = tested on: African green monkey kidney fibroblast (Vero cells); assay: as above; type: cell-based; conditions: Vero CC50 / P. falciparum 3D7 IC50
Text: as §1

[3] = tested on: P. falciparum 3D7; assay: In vitro blood antimalarial activity, malaria SYBR green I-based fluorescence (MSF) method; type: cell-based; conditions: Plasmodium falciparum; P. falciparum 3D7, blood stage, 48 h, mean ± SD of three biological repeats
Procedure: P. falciparum strain 3D7 (wild-type drug sensitive strain) was used in this study. This parasite was maintained continuously in vitro in human O+ erythrocytes (4% hematocrit) at 37 °C under 3% CO2 and 90% N2 in RPMI 1640 culture media (Life Technologies Limited, Paisley, UK) containing 2 mM L-Glutamine, 25 mM HEPES (Sigma), pH 7.4, 2g/L NaHCO3, 40 mg/L gentamicin, 0.37 mM hypoxanthine, and supplemented with 5 g/L Albumax I (Life Technologies, Grand Island, NY, USA). Every 3 to 4 days, the parasite culture was synchronized with 5% sorbitol and transferred into complete medium with uninfected erythrocytes. In vitro antimalarial activity was determined by using the malaria SYBR green I-based fluorescence (MSF) method. Briefly, 0.09 mL of cultured 1% ring-stage synchronized parasites and 2% hematocrit were transferred to individual wells of a standard 96-well microtiter plate and in vitro culture continued for 48 h, with 0.01 mL of compound at different concentration in each well. The compounds were first dissolved in DMSO and diluted with RPMI medium to 1% DMSO. The final concentration of DMSO in each well was 0.1%, which caused no effect on the parasite viability. Following 48 h, SYBR Green I solution (0.02 µL of 10,000X SYBR Green I/100 µL of buffer solution consisted of 20 mM Tris 20, pH 7.5, 5 mM EDTA, 0.008% w/v saponin and 0.08% v/v Triton X-100) was then added to each well, and fluorescence signals were measured by spectrofluorometer at ex485/em 535 nm. […] The result of each compound was normalized with control media for the overall background subtraction as 0% and untreated parasite with 0.1% DMSO as 100% control.

[4] = tested on: hematin polymerization; assay: Inhibition of hematin polymerization (heme polymerization assay); type: biochemical;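 on %Inh1: test concentrations in µM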;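 on %Inh2: test concentrations in µM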;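 on %Inh3: test concentrations in µM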
Procedure: The ability of the 5-phenoxy primaquine analogs to inhibit hematin polymerization was investigated using a protocol modified from the one described previously. […] After it was left standing for 15 min, Tween 20 (0.5 μM; Sigma) was added. […] The assay was performed in triplicate, and results were expressed as the percentage of inhibition relative to hemozoin formation in a negative control. The IC50 values were obtained from the sigmoidal dose–response curves using nonlinear regression curve fitting analyses with GraphPad Prism version 3.00 software. Each IC50 value is the result of at least three separate experiments.

[5] = Vero cells (kidney fibroblasts)
[6] = pH 5.0, mean ± SD of three independent repeats, read-out: IC50, inhibition of hemozoin-initiated hematin polymerization
[7] = primary data, repeat 1, read-out: IC50, heme polymerization inhibition, repeat 1
[8] = primary data, repeat 2, read-out: IC50, heme polymerization inhibition, repeat 2
[9] = primary data, repeat 3, read-out: IC50, heme polymerization inhibition, repeat 3

SMILES	%Inh1 ([4]; conc 2, repeat 1)	%Inh2 ([4]; conc 2, repeat 2)	%Inh3 ([4]; conc 2, repeat 3)	%Inh1 ([4]; conc 10, repeat 1)	%Inh2 ([4]; conc 10, repeat 2)	%Inh3 ([4]; conc 10, repeat 3)	%Inh1 ([4]; conc 50, repeat 1)	%Inh2 ([4]; conc 50, repeat 2)	%Inh3 ([4]; conc 50, repeat 3)	%Inh1 ([4]; conc 100, repeat 1)	%Inh2 ([4]; conc 100, repeat 2)	%Inh3 ([4]; conc 100, repeat 3)	%Inh1 ([4]; conc 200, repeat 1)	%Inh2 ([4]; conc 200, repeat 2)	%Inh3 ([4]; conc 200, repeat 3)	%Inh1 ([4]; conc 400, repeat 1)	%Inh2 ([4]; conc 400, repeat 2)	%Inh3 ([4]; conc 400, repeat 3)	IC50 [4, 6]	IC50 [4, 7]	other results
Cc1c2ccncc2c(C)c2c1[nH]c1ccccc12 [EPT, ellipticine, reference compound]	–	–	–	–	–	–	–	–	–	–	–	–	–	–	–	–	–	–	–	–	CC50 at 72 h [1]: 5.97 ± 0.14 µM
COc1cc(NC(C)CCCN)c2ncccc2c1Oc1ccc(C#N)cc1 (centres unmarked) [7e, 4-((8-((5-Aminopentan-2-yl)amino)-6-methoxyquinolin-5-yl)oxy)benzonitrile]	8.32%	3.87%	7.94%	3.78%	12.84%	9.43%	19.32%	16.35%	21.70%	30.12%	30.64%	17.31%	52.26%	55.89%	45.17%	78.42%	85.27%	69.64%	286 ± 11.9 µM	291 µM	SI, selectivity index = CC50 on Vero cells / IC50 in the blood stage [2]: >21.65; CC50 at 72 h [1, 5]: > 100 µM; IC50 [3]: 4.62 ± 0.56 µM; IC50 [4, 8]: 269 µM; IC50 [4, 9]: 297 µM
COc1cc(NC(C)CCCN)c2ncccc2c1Oc1ccc(F)cc1 (centres unmarked) [7f, N^4-(5-(4-Fluorophenoxy)-6-methoxyquinolin-8-yl) pentane-1,4-diamine]	6.02%	1.81%	11.52%	14.36%	7.54%	9.67%	18.94%	24.82%	18.18%	36.82%	32.41%	35.89%	67.61%	72.28%	73.29%	89.47%	91.81%	104.26%	167 ± 8.6 µM	155 µM	SI, selectivity index = CC50 on Vero cells / IC50 in the blood stage [2]: 9.55; CC50 at 72 h [1, 5]: 47.5 ± 3.23 µM; IC50 [3]: 4.97 ± 0.4 µM; IC50 [4, 8]: 171 µM; IC50 [4, 9]: 175 µM
CCN(CC)CCCC(C)Nc1ccnc2cc(Cl)ccc12 (centres unmarked) [CQ, chloroquine, reference compound]	14.98%	12.22%	11.21%	19.21%	27.67%	27.09%	49.80%	36.78%	59.78%	84.80%	81.20%	70.36%	96.36%	72.73%	85.74%	105.70%	94.31%	97.41%	61.2 ± 1.3 µM	61.3 µM	IC50 [4, 8]: 59.6 µM; IC50 [4, 9]: 62.8 µM
COc1ccc(Oc2c(OC)cc(NC(C)CCCN)c3ncccc23)cc1 (centres unmarked) [7b, N^4-(6-Methoxy-5-(4-methoxyphenoxy)quinolin-8-yl)pentane-1,4-diamine]	2.65%	5.23%	1.85%	5.02%	7.53%	11.84%	15.24%	19.36%	16.35%	40.12%	39.30%	42.63%	67.25%	67.23%	71.49%	94.57%	90.75%	98.34%	160 ± 2.2 µM	162 µM	SI, selectivity index = CC50 on Vero cells / IC50 in the blood stage [2]: 7.05; CC50 at 72 h [1, 5]: 55.6 ± 4.34 µM; IC50 [3]: 7.89 ± 0.5 µM; IC50 [4, 8]: 160 µM; IC50 [4, 9]: 157 µM

— publication PMC8272044, “5-Phenoxy Primaquine Analogs and the Tetraoxane Hybrid as Antimalarial Agents” (Molecules, 2021)
